Experimental data: patent US20200079860A1, “METHODS AND COMPOSITIONS FOR TUMOR THERAPY” (MEMORIAL SLOAN KETTERING CANCER CENTER, priority 2015, published 2020)

System: B16F10 cells
Test: mouse bilateral tumor model (B16 murine melanoma); one tumor injected, contralateral non-injected
Format: in vivo, C57BL/6 mice
Experimental: By injecting only one of two tumors throughout the course of the experiment it is possible to separate the effect of the injected tumor from the “abscopal” effect on the distant non-injected tumor. Once treatment begins, tumors are measured twice weekly for at least 90 days.
Also, unless indicated otherwise, controls were treated with isotype control antibodies and vehicle only. Furthermore, unless indicated otherwise, all experiments were performed using the mouse bilateral tumor model described below and summarized in FIG. 2.
The animals used had large tumors in two opposite flanks. One tumor was injected while the second remained non-injected (FIG. 2), allowing separate analysis of the effect at the injected tumor from the so-called ‘abscopal’ effect at the non-injected tumor, in order to understand how this treatment could benefit patients with metastatic cancer. […] C57BL/6 mice were initially implanted with 5×10^5 syngeneic B16F10 cells intra-dermally in bilateral flanks. 8 days post tumor cell implantation, when bilateral tumors measured ˜0.5 cm, intratumoral (IT) treatment with various test agents was initiated together with intraperitoneal (IP) anti-PD-1 mAb. […]
8 days post tumor cell implantation, when bilateral tumors measured ˜0.5 cm, intratumoral (IT) treatment with agents selected to activate APCs was initiated together with intraperitoneal (IP) anti-PD-1 mAb. […]

Row | Compound | substitution for MPL in the treatment (FIG. 35B) | survival on concurrent addition of systemic chemotherapy (added IP to intratumoral MPL, anti-IL10R, and anti-CD40)
1 | PolyIC | can be substituted for MPL, albeit possibly with slightly reduced activity | 
2 | O=C1[O][Pt]2([NH][C@@H]3CCCC[C@H]3[NH]2)[O]C1=O [oxaliplatin] |  | increased survival
